In PubChem BioAssay AID248 (DTP/NCI, 2004) one finds T/C data, which are given here for 20 compounds.

Several values for one entry are separate records, joined by “and”; a condition that tells them apart may be missing. Equal entries are not always repeated. Toxic doses and inconclusive results are not listed.

This experiment has as its system L1210 leukemia ip in BDF1 mice, survival T/C. The experiment is described as follows: NCI In Vivo Anticancer Drug Screen. Data for tumor model L1210 Leukemia (intraperitoneal) in B6D2F1 (BDF1) mice. As to conditions: endpoint: mean survival time, higher = longer survival. The essentials:
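Tumor was transplanted into mice, which were then dosed with test compound or vehicle alone. Survival was recorded for each group, and the treated figure was expressed relative to the control figure.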

Where [1] appears, read: dose: 75.0 mg/kg/injection, schedule: Q01DX001 (ip), vehicle: saline.
Setting [2] is: dose: 100.0 mg/kg/injection, schedule: Q04DX002 (ip), vehicle: Klucel (hydroxypropylcellulose) (HPC).
[3] abbreviates: dose: 200.0 mg/kg/injection, schedule: Q04DX002 (ip), vehicle: Klucel (hydroxypropylcellulose) (HPC).
Where [4] appears, read: dose: 400.0 mg/kg/injection, schedule: Q04DX002 (ip), vehicle: Klucel (hydroxypropylcellulose) (HPC).
[5] abbreviates: dose: 100.0 mg/kg/injection, schedule: Q01DX009 (ip), vehicle: saline with Tween-80.
Setting [6] is: dose: 400.0 mg/kg/injection, schedule: Q01DX009 (ip), vehicle: saline with Tween-80.
Setting [7] is: dose: 100.0 mg/kg/injection, schedule: Q04DX003 (ip), vehicle: saline with Tween-80.
Where [8] appears, read: dose: 200.0 mg/kg/injection, schedule: Q04DX003 (ip), vehicle: saline with Tween-80.
The mark [9] stands for this setting: dose: 400.0 mg/kg/injection, schedule: Q04DX003 (ip), vehicle: saline with Tween-80.

On to `C=CCOc1cccc(C(C)(C)C)c1`, for which the T/C is 103 % of control (dose: 75.0 mg/kg/injection, schedule: Q04DX003 (ip), vehicle: saline with Tween-80); 101 % of control (dose: 150.0 mg/kg/injection, schedule: Q04DX003 (ip), vehicle: saline with Tween-80); 92 % of control (dose: 300.0 mg/kg/injection, schedule: Q04DX003 (ip), vehicle: saline with Tween-80).

`CCCCCCCCCCCC(=O)SCCSC(=O)CCCCCCCCCCC`: the T/C reads like this: (dose: 100.0 mg/kg/injection, schedule: Q04DX002 (ip), vehicle: other) 94 % of control and 104 % of control; (dose: 100.0 mg/kg/injection, schedule: Q04DX003 (ip), vehicle: other) 86 % of control and 89 % of control; (dose: 200.0 mg/kg/injection, schedule: Q04DX002 (ip), vehicle: other) 113 % of control and 90 % of control; (dose: 200.0 mg/kg/injection, schedule: Q04DX003 (ip), vehicle: other) 96 % of control and 89 % of control; (dose: 400.0 mg/kg/injection, schedule: Q04DX002 (ip), vehicle: other) 103 % of control and 109 % of control; (dose: 400.0 mg/kg/injection, schedule: Q04DX003 (ip), vehicle: other) 89 % of control and 92 % of control.

With `CCCS(=O)[O-].CCCS(=O)[O-].[Zn+2]`, the T/C under setting [1] is 104 % of control.

For the compound `OC1(c2ccccc2)c2ccccc2C(O)(c2ccccc2)c2cc(-c3ccccc3)c(-c3ccccc3)cc21` (stereo not given), the T/C runs as follows: under setting [2], 95 % of control; under setting [3], 103 % of control; under setting [4], 106 % of control.

Take `CCC1(N)COC(c2ccccc2)OC1` (stereo not given): the T/C (dose: 50.0 mg/kg/injection, schedule: Q01DX009 (ip), vehicle: Klucel (hydroxypropylcellulose) (HPC)) is 109 % of control and the T/C (dose: 100.0 mg/kg/injection, schedule: Q01DX009 (ip), vehicle: Klucel (hydroxypropylcellulose) (HPC)) is 88 % of control.

As to `CCc1cccc(OC/C=C(\C)CCC2OC2(C)CC)c1` (stereo not given), the T/C (dose: 100.0 mg/kg/injection, schedule: Q04DX002 (ip), vehicle: saline with Tween-80) was 100 % of control; the T/C (dose: 200.0 mg/kg/injection, schedule: Q04DX002 (ip), vehicle: saline with Tween-80) is 100 % of control; the T/C (dose: 400.0 mg/kg/injection, schedule: Q04DX002 (ip), vehicle: saline with Tween-80) was 94 % of control.

As for `CC12CCC(O)CC1CCC1C3CC/C(=C\c4ccco4)C(=O)C3(CCC#N)CCC12` (stereo not given), the T/C is, setting by setting: (dose: 100.0 mg/kg/injection, schedule: Q01DX001 (sc), vehicle: steriod suspending solution) 108 % of control; (dose: 200.0 mg/kg/injection, schedule: Q01DX001 (sc), vehicle: steriod suspending solution) 106 % of control; (dose: 400.0 mg/kg/injection, schedule: Q01DX001 (sc), vehicle: steriod suspending solution) 106 % of control.

Consider `O=C(/C=C/c1ccccc1)OC(C(=O)O)c1ccccc1` (stereo not given), for which the T/C was 105 % of control under setting [1]; 101 % of control (dose: 150.0 mg/kg/injection, schedule: Q01DX001 (ip), vehicle: saline); 109 % of control (dose: 300.0 mg/kg/injection, schedule: Q01DX001 (ip), vehicle: saline).

With `COc1ccc(NC(=O)Nc2cc([N+](=O)[O-])ccc2C)c(OC)c1`, the T/C under setting [2] is 92 % of control, the T/C under setting [3] was 108 % of control and the T/C under setting [4] was 92 % of control.

For `O=C(Nc1ccc(NC(=O)c2ccc(C3=NCCCN3)cc2)cc1)c1ccc(C2=NCCCN2)cc1`, the T/C is 106 % of control (dose: 0.93 mg/kg/injection, schedule: Q01DX Z (ip), vehicle: carboxymethylcellulose (CMC)); 100 % of control (dose: 1.87 mg/kg/injection, schedule: Q01DX Z (ip), vehicle: carboxymethylcellulose (CMC)); 108 % of control and 118 % of control (dose: 3.75 mg/kg/injection, schedule: Q01DX Z (ip), vehicle: carboxymethylcellulose (CMC)); 166 % of control and 191 % of control (dose: 7.5 mg/kg/injection, schedule: Q01DX Z (ip), vehicle: carboxymethylcellulose (CMC)); 200 % of control and 204 % of control (dose: 15.0 mg/kg/injection, schedule: Q01DX Z (ip), vehicle: carboxymethylcellulose (CMC)); 101 % of control (dose: 30.0 mg/kg/injection, schedule: Q01DX Z (ip), vehicle: carboxymethylcellulose (CMC)). For the same compound, the T/C (dose: 37.5 mg/kg/injection, schedule: Q01DX Z (oral), vehicle: carboxymethylcellulose (CMC)) was 101 % of control; the T/C (dose: 75.0 mg/kg/injection, schedule: Q01DX Z (oral), vehicle: carboxymethylcellulose (CMC)) is 110 % of control; the T/C (dose: 150.0 mg/kg/injection, schedule: Q01DX Z (oral), vehicle: carboxymethylcellulose (CMC)) is 101 % of control; the T/C (dose: 300.0 mg/kg/injection, schedule: Q01DX Z (oral), vehicle: carboxymethylcellulose (CMC)) is 106 % of control.

Turning to `CC1(C)N=C(N)N=C(N)N1c1cccc(CCCCOc2ccccc2)c1`, the T/C by setting is: (dose: 6.25 mg/kg/injection, schedule: Q04DX003 (ip), vehicle: saline with Tween-80) 101 % of control; (dose: 12.5 mg/kg/injection, schedule: Q04DX003 (ip), vehicle: saline with Tween-80) 106 % of control; (dose: 25.0 mg/kg/injection, schedule: Q04DX003 (ip), vehicle: saline with Tween-80) 95 % of control.

For the compound `COC1CCCCC1SCSC1CCCCC1OC` (stereo not given), the T/C reads like this: under setting [5], 90 % of control; under setting [6], 88 % of control.

Consider `Cc1ccc(NC(=O)C(c2ccc(Cl)cc2)c2ccc(Cl)cc2)cc1`, for which the T/C is 96 % of control under setting [2], 100 % of control under setting [3] and 96 % of control under setting [4].

`NC(=O)C(Br)c1ccccc1` (stereo not given): the T/C runs as follows: (dose: 100.0 mg/kg/injection, schedule: Q04DX003 (ip), vehicle: Klucel (hydroxypropylcellulose) (HPC)) 101 % of control; (dose: 200.0 mg/kg/injection, schedule: Q04DX003 (ip), vehicle: Klucel (hydroxypropylcellulose) (HPC)) 98 % of control.

For the compound `CC1(C)CCC(C)(C)C(O)C1O` (stereo not given), the T/C reads like this: under setting [2], 92 % of control; under setting [3], 105 % of control; under setting [4], 118 % of control.

As to `C=CCNP(=O)(OCC)OCC`, the T/C is, setting by setting: (dose: 12.5 mg/kg/injection, schedule: Q01DX009 (ip), vehicle: saline) 101 % of control; (dose: 12.5 mg/kg/injection, schedule: Q04DX003 (ip), vehicle: saline) 104 % of control; (dose: 25.0 mg/kg/injection, schedule: Q01DX009 (ip), vehicle: saline) 87 % of control; (dose: 25.0 mg/kg/injection, schedule: Q04DX003 (ip), vehicle: saline) 104 % of control; (dose: 50.0 mg/kg/injection, schedule: Q04DX003 (ip), vehicle: saline) 104 % of control; (dose: 100.0 mg/kg/injection, schedule: Q01DX009 (ip), vehicle: saline) 104 % of control. Further, the T/C is, setting by setting: (dose: 100.0 mg/kg/injection, schedule: Q04DX003 (ip), vehicle: saline) 101 % of control; (dose: 200.0 mg/kg/injection, schedule: Q01DX009 (ip), vehicle: saline) 109 % of control; (dose: 200.0 mg/kg/injection, schedule: Q04DX003 (ip), vehicle: saline) 115 % of control.

As for `O=C(O)c1ccccc1NC(c1ccccc1)c1ccc2cccnc2c1O` (stereo not given), the T/C is 89 % of control (dose: 100.0 mg/kg/injection, schedule: Q01DX001 (ip), vehicle: saline) and 89 % of control (dose: 200.0 mg/kg/injection, schedule: Q01DX001 (ip), vehicle: saline).

For `CCOC(=O)C1CC(C)=C(C)CC1C(=O)O` (stereo not given), the T/C is 87 % of control under setting [5]; 98 % of control under setting [7]; 97 % of control (dose: 200.0 mg/kg/injection, schedule: Q01DX009 (ip), vehicle: saline with Tween-80); 90 % of control under setting [8]; 92 % of control under setting [6]; 98 % of control under setting [9].

On to `CCOC=Nc1ccc(-n2cnc3c(Cl)ncnc32)cc1C`, for which the T/C by setting is: (dose: 100.0 mg/kg/injection, schedule: Q01DX001 (ip), vehicle: carboxymethylcellulose (CMC)) 91 % of control; (dose: 400.0 mg/kg/injection, schedule: Q01DX001 (ip), vehicle: carboxymethylcellulose (CMC)) 98 % of control.

`CCNC(=O)OCCN1C(=O)C2C3CCC(O3)C2C1=O` (stereo not given): the T/C (dose: 100.0 mg/kg/injection, schedule: Q01DX001 (ip), vehicle: saline with Tween-80) was 98 % of control; the T/C under setting [7] was 100 % of control; the T/C (dose: 200.0 mg/kg/injection, schedule: Q01DX001 (ip), vehicle: saline with Tween-80) was 103 % of control; the T/C under setting [8] is 100 % of control; the T/C (dose: 400.0 mg/kg/injection, schedule: Q01DX001 (ip), vehicle: saline with Tween-80) is 113 % of control; the T/C under setting [9] was 97 % of control.
